Data on 14 compounds can be found in patent publication US20260200947A1, “FUSED CYCLIC COMPOUNDS AND USE THEREOF” (Jacobio Pharmaceuticals Co., Ltd., priority 2022, published 2026).

Some results are limits rather than exact numbers.

GppNp-KRAS G12V, sequence (P01116 1-169 isoform P01116-2 G12V): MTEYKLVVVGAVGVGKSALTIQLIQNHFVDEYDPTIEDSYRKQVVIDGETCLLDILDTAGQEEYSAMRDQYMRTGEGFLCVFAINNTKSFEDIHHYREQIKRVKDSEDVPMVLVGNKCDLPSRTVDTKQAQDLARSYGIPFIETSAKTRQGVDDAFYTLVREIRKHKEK

One assay deals with GDP-KRAS G12V (Homo sapiens, UniProt P01116, G12V). The experiment in a line: biochemical.
GDP-KRAS G12V, sequence (P01116 1-169 isoform P01116-2 G12V): as above
Regarding `N#Cc1c(N)sc2c(F)ccc(-c3c(F)c4c5c(nc(OC[C@@]67CCCN6C[C@H](F)C7)nc5c3F)N3CCCOC[C@H]3CO4)c12` (single isomer, unassigned) [Compound 163A], the IC50 worked out at 423 nM.

Compound `C#Cc1c(F)ccc2cc(N)cc(-c3nc4c5c(nc(OC[C@@H]6CCN6CC(F)F)nc5c3F)N3CCCOC[C@H]3CO4)c12` [Compound 23] yielded an IC50 of 36.2 nM.

`N#Cc1c(N)sc2c(F)ccc(-c3cc4c5c(nc(OC[C@@]67CCCN6C[C@H](F)C7)nc5c3F)N3CCCCC[C@H]3CO4)c12` [Compound 139] returned an IC50 of 21.6 nM.

For `C#Cc1c(F)ccc2cc(N)cc(-c3nc4c5c(nc(OC[C@@]67CCCN6C[C@H](F)C7)nc5c3F)N3C(C5CCC5)CCOCC3N4C)c12` (some centres unmarked) [Compound 105], the IC50 came to 19.5 nM.

`C#Cc1c(F)ccc2cc(N)cc(-c3nc4c5c(nc(OC[C@@]67CCCN6C[C@H](F)C7)nc5c3F)N3C(C(F)F)CCOCC3N4C)c12` (some centres unmarked) [Compound 52] came in with an IC50 of 1.34 nM.

In the case of `C#Cc1c(F)ccc2cc(N)cc(-c3nc4c5c(nc(OC[C@@]67CCCN6C[C@H](F)C7)nc5c3F)N3C(CCCC[C@@H]3C(C)O)N4C)c12` (some centres unmarked) [Compound 143], the IC50 is 2.94 nM.

Compound `C#Cc1c(F)ccc2cc(N)cc(-c3nc4c5c(nc(OC[C@@]67CCCN6C[C@H](F)C7)nc5c3F)N3CCCC(F)(F)C3CO4)c12` (some centres unmarked) [Compound 28] returned a half-maximal inhibitory concentration (IC50) of 18.1 nM.

`C#Cc1c(F)ccc2cc(N)cc(-c3nc4c5c(nc(OC[C@@]67CCCN6C[C@H](F)C7)nc5c3F)N3C(COCCN3C)N4C)c12` (some centres unmarked) [Compound 118] showed a concentration for half-maximal inhibition (IC50) of 11.7 nM.

Regarding `C#Cc1c(F)ccc2cc(N)cc(-c3nc4c5c(nc(OCC(CN6CCOCC6)OC)nc5c3F)N3CCCOCC3N4C)c12` (centres unmarked) [Compound 142], it took 65.4 nM to reach half-maximal inhibition (IC50).

For `C#Cc1c(F)ccc2cc(N)cc(-c3nc4c5c(nc(OC[C@@]67CCCN6C[C@H](F)C7)nc5c3F)N3C/C(=N\OC)COC[C@H]3N4C)c12` [Compound 137], the midpoint of inhibition, the IC50, lay at 1.84 nM.

In turn, `C[C@H]1CCOC[C@H]2COc3c(Cl)c(-c4ccc(F)c5sc(N)c(C#N)c45)c(F)c4nc(OC[C@@]56CCCN5C[C@H](F)C6)nc(c34)N21` (atropisomer, axis not shown) [Compound 158A] registered a half-inhibitory concentration (IC50) of 0.939 nM.

For the compound `C#Cc1c(F)ccc2cc(N)cc(-c3nc4c5c(nc(OC[C@@]67CCCN6C[C@H](F)C7)nc5n5c(n4C)=CC=CCC5)c3F)c12` [Compound 112], the half-inhibitory concentration (IC50) is 21.6 nM.

For `C#Cc1c(F)ccc2cc(N)cc(-c3nc4c5c(nc(OC[C@@]67CCCN6C[C@H](F)C7)nc5c3F)N3CCCOCC3N4C(C)=O)c12` (some centres unmarked) [Compound 78], 10 nM corresponded to half-maximal inhibition (IC50).

The subject of a further assay is SW620 cells (K-Ras G12V).
Assay: not given
`C#Cc1c(F)ccc2cc(N)cc(-c3nc4c5c(nc(OC[C@@]67CCCN6C[C@H](F)C7)nc5c3F)N3CC(C)(O)CC[C@H]3CO4)c12` (some centres unmarked) [Compound 30] registered an IC50 of 436 nM.

The target in another assay is GDP-KRAS G12D (Homo sapiens, UniProt P01116, G12D). The assay is described as follows: biochemical.
GDP-KRAS G12D, sequence (P01116 1-169 isoform P01116-2 G12D): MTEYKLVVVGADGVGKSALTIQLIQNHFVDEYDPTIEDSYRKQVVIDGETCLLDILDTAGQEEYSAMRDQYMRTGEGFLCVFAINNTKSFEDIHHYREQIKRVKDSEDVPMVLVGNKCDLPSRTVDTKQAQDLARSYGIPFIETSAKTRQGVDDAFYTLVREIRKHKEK
In turn, `N#Cc1c(N)sc2c(F)ccc(-c3c(F)c4c5c(nc(OC[C@@]67CCCN6C[C@H](F)C7)nc5c3F)N3CCCOC[C@H]3CO4)c12` (single isomer, unassigned) [Compound 163A] yielded an IC50 of 301 nM.

For `C#Cc1c(F)ccc2cc(N)cc(-c3nc4c5c(nc(OC[C@@H]6CCN6CC(F)F)nc5c3F)N3CCCOC[C@H]3CO4)c12` [Compound 23], the IC50 was found to be 30 nM.

Consider `N#Cc1c(N)sc2c(F)ccc(-c3cc4c5c(nc(OC[C@@]67CCCN6C[C@H](F)C7)nc5c3F)N3CCCCC[C@H]3CO4)c12` [Compound 139], for which inhibition was half-maximal at 19.6 nM (IC50).

As for `C#Cc1c(F)ccc2cc(N)cc(-c3nc4c5c(nc(OC[C@@]67CCCN6C[C@H](F)C7)nc5c3F)N3C(C5CCC5)CCOCC3N4C)c12` (some centres unmarked) [Compound 105], half-maximal inhibition (IC50) required 44.1 nM.

The compound `C#Cc1c(F)ccc2cc(N)cc(-c3nc4c5c(nc(OC[C@@]67CCCN6C[C@H](F)C7)nc5c3F)N3C(C(F)F)CCOCC3N4C)c12` (some centres unmarked) [Compound 52] yielded a half-inhibitory concentration (IC50) of 2.83 nM.

`C#Cc1c(F)ccc2cc(N)cc(-c3nc4c5c(nc(OC[C@@]67CCCN6C[C@H](F)C7)nc5c3F)N3C(CCCC[C@@H]3C(C)O)N4C)c12` (some centres unmarked) [Compound 143] gave a concentration for half-maximal inhibition (IC50) of 2.51 nM.

`C#Cc1c(F)ccc2cc(N)cc(-c3nc4c5c(nc(OC[C@@]67CCCN6C[C@H](F)C7)nc5c3F)N3CCCC(F)(F)C3CO4)c12` (some centres unmarked) [Compound 28] came in with an IC50 of 13 nM.

`C#Cc1c(F)ccc2cc(N)cc(-c3nc4c5c(nc(OC[C@@]67CCCN6C[C@H](F)C7)nc5c3F)N3C(COCCN3C)N4C)c12` (some centres unmarked) [Compound 118]: the IC50 was 11.2 nM.

For the compound `C#Cc1c(F)ccc2cc(N)cc(-c3nc4c5c(nc(OCC(CN6CCOCC6)OC)nc5c3F)N3CCCOCC3N4C)c12` (centres unmarked) [Compound 142], the IC50 came out at 233 nM.

`C#Cc1c(F)ccc2cc(N)cc(-c3nc4c5c(nc(OC[C@@]67CCCN6C[C@H](F)C7)nc5c3F)N3C/C(=N\OC)COC[C@H]3N4C)c12` [Compound 137] displayed a half-inhibitory concentration (IC50) of 1.86 nM.

On to `C[C@H]1CCOC[C@H]2COc3c(Cl)c(-c4ccc(F)c5sc(N)c(C#N)c45)c(F)c4nc(OC[C@@]56CCCN5C[C@H](F)C6)nc(c34)N21` (atropisomer, axis not shown) [Compound 158A], for which the 50% inhibitory concentration (IC50) turned out to be 0.996 nM.

As for `C#Cc1c(F)ccc2cc(N)cc(-c3nc4c5c(nc(OC[C@@]67CCCN6C[C@H](F)C7)nc5n5c(n4C)=CC=CCC5)c3F)c12` [Compound 112], the half-maximal inhibitory concentration (IC50) turned out to be 33.4 nM.

As to `C#Cc1c(F)ccc2cc(N)cc(-c3nc4c5c(nc(OC[C@@]67CCCN6C[C@H](F)C7)nc5c3F)N3CCCOCC3N4C(C)=O)c12` (some centres unmarked) [Compound 78], the IC50 was found to be 21.3 nM.

The next assay addresses GppNp-KRAS G12V (Homo sapiens, UniProt P01116, G12V). The assay is described as follows: biochemical.
On to `N#Cc1c(N)sc2c(F)ccc(-c3c(F)c4c5c(nc(OC[C@@]67CCCN6C[C@H](F)C7)nc5c3F)N3CCCOC[C@H]3CO4)c12` (single isomer, unassigned) [Compound 163A], for which the half-maximal inhibitory concentration (IC50) is greater than 1000 nM.

`N#Cc1c(N)sc2c(F)ccc(-c3cc4c5c(nc(OC[C@@]67CCCN6C[C@H](F)C7)nc5c3F)N3CCCCC[C@H]3CO4)c12` [Compound 139] showed an IC50 greater than 1000 nM.

`C#Cc1c(F)ccc2cc(N)cc(-c3nc4c5c(nc(OC[C@@]67CCCN6C[C@H](F)C7)nc5c3F)N3C(C5CCC5)CCOCC3N4C)c12` (some centres unmarked) [Compound 105] showed a concentration for half-maximal inhibition (IC50) greater than 1000 nM.

Consider `C#Cc1c(F)ccc2cc(N)cc(-c3nc4c5c(nc(OC[C@@]67CCCN6C[C@H](F)C7)nc5c3F)N3C(C(F)F)CCOCC3N4C)c12` (some centres unmarked) [Compound 52], for which 363 nM corresponded to half-maximal inhibition (IC50).

As for `C#Cc1c(F)ccc2cc(N)cc(-c3nc4c5c(nc(OC[C@@]67CCCN6C[C@H](F)C7)nc5c3F)N3C(CCCC[C@@H]3C(C)O)N4C)c12` (some centres unmarked) [Compound 143], the IC50 was 631 nM.

The compound `C#Cc1c(F)ccc2cc(N)cc(-c3nc4c5c(nc(OC[C@@]67CCCN6C[C@H](F)C7)nc5c3F)N3C(COCCN3C)N4C)c12` (some centres unmarked) [Compound 118] came in with an IC50 greater than 1000 nM.

In turn, `C#Cc1c(F)ccc2cc(N)cc(-c3nc4c5c(nc(OCC(CN6CCOCC6)OC)nc5c3F)N3CCCOCC3N4C)c12` (centres unmarked) [Compound 142] returned an IC50 greater than 1000 nM.

Regarding `C#Cc1c(F)ccc2cc(N)cc(-c3nc4c5c(nc(OC[C@@]67CCCN6C[C@H](F)C7)nc5c3F)N3C/C(=N\OC)COC[C@H]3N4C)c12` [Compound 137], half-maximal inhibition (IC50) required 486 nM.

Take `C[C@H]1CCOC[C@H]2COc3c(Cl)c(-c4ccc(F)c5sc(N)c(C#N)c45)c(F)c4nc(OC[C@@]56CCCN5C[C@H](F)C6)nc(c34)N21` (atropisomer, axis not shown) [Compound 158A]: half-maximal inhibition (IC50) was put at 4.93 nM.

`C#Cc1c(F)ccc2cc(N)cc(-c3nc4c5c(nc(OC[C@@]67CCCN6C[C@H](F)C7)nc5n5c(n4C)=CC=CCC5)c3F)c12` [Compound 112] yielded an IC50 greater than 1000 nM.

`C#Cc1c(F)ccc2cc(N)cc(-c3nc4c5c(nc(OC[C@@]67CCCN6C[C@H](F)C7)nc5c3F)N3CCCOCC3N4C(C)=O)c12` (some centres unmarked) [Compound 78] yielded an IC50 greater than 1000 nM.

Another assay deals with GppNp-KRAS G12D (Homo sapiens, UniProt P01116, G12D). The experiment in a line: biochemical.
GppNp-KRAS G12D, sequence (P01116 1-169 isoform P01116-2 G12D): as above
In turn, `N#Cc1c(N)sc2c(F)ccc(-c3c(F)c4c5c(nc(OC[C@@]67CCCN6C[C@H](F)C7)nc5c3F)N3CCCOC[C@H]3CO4)c12` (single isomer, unassigned) [Compound 163A] returned an IC50 greater than 1000 nM.

In turn, `C#Cc1c(F)ccc2cc(N)cc(-c3nc4c5c(nc(OC[C@@]67CCCN6C[C@H](F)C7)nc5c3F)N3C(C5CCC5)CCOCC3N4C)c12` (some centres unmarked) [Compound 105] came in with an IC50 greater than 1000 nM.

`C#Cc1c(F)ccc2cc(N)cc(-c3nc4c5c(nc(OC[C@@]67CCCN6C[C@H](F)C7)nc5c3F)N3C(C(F)F)CCOCC3N4C)c12` (some centres unmarked) [Compound 52] yielded an IC50 of 146 nM.

The compound `C#Cc1c(F)ccc2cc(N)cc(-c3nc4c5c(nc(OC[C@@]67CCCN6C[C@H](F)C7)nc5c3F)N3C(CCCC[C@@H]3C(C)O)N4C)c12` (some centres unmarked) [Compound 143] had an IC50 of 246 nM.

`C#Cc1c(F)ccc2cc(N)cc(-c3nc4c5c(nc(OCC(CN6CCOCC6)OC)nc5c3F)N3CCCOCC3N4C)c12` (centres unmarked) [Compound 142]: the half-inhibitory concentration (IC50) was greater than 1000 nM.

`C#Cc1c(F)ccc2cc(N)cc(-c3nc4c5c(nc(OC[C@@]67CCCN6C[C@H](F)C7)nc5c3F)N3C/C(=N\OC)COC[C@H]3N4C)c12` [Compound 137] had an IC50 of 210 nM.

In turn, `C[C@H]1CCOC[C@H]2COc3c(Cl)c(-c4ccc(F)c5sc(N)c(C#N)c45)c(F)c4nc(OC[C@@]56CCCN5C[C@H](F)C6)nc(c34)N21` (atropisomer, axis not shown) [Compound 158A] came in with a 50% inhibitory concentration (IC50) of 10.8 nM.

Consider `C#Cc1c(F)ccc2cc(N)cc(-c3nc4c5c(nc(OC[C@@]67CCCN6C[C@H](F)C7)nc5n5c(n4C)=CC=CCC5)c3F)c12` [Compound 112], for which half-maximal inhibition (IC50) required 921 nM.

Compound `C#Cc1c(F)ccc2cc(N)cc(-c3nc4c5c(nc(OC[C@@]67CCCN6C[C@H](F)C7)nc5c3F)N3CCCOCC3N4C(C)=O)c12` (some centres unmarked) [Compound 78] returned an IC50 greater than 1000 nM.

Broadly, the IC50 is the concentration that gives 50% inhibition.
